Source: ChEMBL document CHEMBL3817795, “Identification and optimisation of a series of N-(4-anilino-2-pyridyl)acetamide activin receptor-like kinase 1 (ALK1) inhibitors” (Medchemcomm, 2016)
Values after ≈ are worked out from the molar mass of the structure shown.

Columns and labels:
[1] = Lipophilicity, log D of the compound at pH 7.4; type: physicochemical; settings: buffer
[2] = Solubility of the compound; type: physicochemical

logD [1] | solubility [2] [µM] | SMILES
3.3 | – | O=C(Nc1cc(Nc2ccccc2)ccn1)C1CC1
3.7 | – | O=C(Nc1cc(Nc2cccc3c2OCO3)ccn1)C1CC1
– | 49 (≈ 14.1 µg/mL) | O=C(Nc1cc(Nc2ccccc2Cl)ccn1)C1CC1
